Experimental findings from publication PMC8621857, “Structural Insights into the Azole Resistance of the Candida albicans Darlington Strain Using Saccharomyces cerevisiae Lanosterol 14α-Demethylase as a Surrogate” (Journal of Fungi, 2021) are described below.

Experiment [1] relates to S. cerevisiae strain AD3Δ ScErg11 (AD3Δ) overexpressing wild-type ScLDM6×His. The experiment can be described thus: Broth microdilution drug susceptibility assay (MIC80), strain AD3Δ ScErg11. It is filed as cell-based, Saccharomyces cerevisiae. The settings on record: strain AD3Δ; for MIC80: Saccharomyces cerevisiae, 48 h, 30 °C, pH 6.8, mean (± SEM), n = 3, read-out: MIC80; for MIC80/Relative Amount of ScLDM6×His: relative expression 1. Here is the method: (§1) The native ScERG11 gene in yeast cells containing mutant ScERG11-6×His constructs in the PDR5 locus was disrupted by homologous recombination with a cassette encoding the His1 selection marker and sequences homologous with the regions bordering the endogenous ScERG11 ORF to create strains AD3Δ ScErg11 Y140H, AD3Δ ScErg11 I471T and AD3Δ ScErg11Y140H I471T [43]. Transformants were selected on SD-His agar plates incubated at 30 °C for 48–72 h. Genomic DNA was extracted, and DNA sequencing as above was used to confirm deletion of the native ERG11. Strain AD3Δ ScErg11 (denoted as AD3Δ), which overexpresses wild-type ScLDM6×His from the PDR5 locus and has the native ScERG11 gene disrupted, was used as a control strain [43].
(§2) Azole susceptibility was measured as the mean drug concentration required to inhibit 80% of yeast growth (MIC80) compared to a non-drug control, using a standard broth microdilution assay. Serial dilutions of short- (FLC and VCZ), medium- (VT-1161), and long-tailed (ITC and PCZ) azole drugs, and the control drugs micafungin (MCF) and amphotericin B (AMB), were prepared in a 96-well microtiter plate in complete synthetic media lacking uracil, buffered to pH 6.8 [34]. Control and test cells were seeded at an optical density of 600 nm (OD600) of 0.005 (~1.5 × 10^4 colony forming units). After incubation for 48 h at 30 °C with constant agitation (200 rpm), the OD600 nm of each well was measured using a Synergy 2 multi-mode plate reader (BioTek Instruments, Winooski, VT, USA). The experiment was repeated three times (a total of nine measurements for the response of each strain to each drug). GraphPad Prism 5.0 software was used for statistical analysis, using a one-way analysis of variance with a Bonferroni post-hoc test. The statistical significance of comparisons was accepted when p < 0.05.

In experiment [2] the test system is S. cerevisiae strain AD3Δ ScErg11 I471T expressing ScLDM6×His I471T. The experiment can be described thus: Broth microdilution drug susceptibility assay (MIC80), strain AD3Δ ScErg11 I471T. The class given is cell-based, Saccharomyces cerevisiae. The conditions noted are these: for MIC80: Saccharomyces cerevisiae, 48 h, 30 °C, pH 6.8, mean (± SEM), n = 3; for MIC80 / MIC80/Relative Amount of ScLDM6×His / fold-resistance based on the relative amount of recombinant enzyme compared with strain AD3Δ: strain I471T; for increased susceptibility compared with AD3Δ: strain AD3Δ ScErg11 I471T, not corrected for expression; for MIC80/Relative Amount of ScLDM6×His / fold-resistance based on the relative amount of recombinant enzyme compared with strain AD3Δ: relative expression 0.51. Here is the method:
as §1, §2
For orientation: Dilution methods test growth across graded concentrations, often in twofold steps.

Experiment [3] concerns S. cerevisiae strain AD2Δ (native wild-type ScLDM). Description: Broth microdilution drug susceptibility assay (MIC80), host strain AD2Δ. It is filed as cell-based. The settings on record: Saccharomyces cerevisiae; strain AD2Δ; 48 h, 30 °C, pH 6.8; mean (± SEM), n = 3; read-out: MIC80. Here is the method: Yeast strains used in this study (Supplementary Table S1) were prepared using the AD2Δ strain of S. cerevisiae as a host, using an established protocol. AD2Δ is hypersensitive to xenobiotics due to the deletion of seven major ABC transporters, including those responsible for the efflux of azole drugs. It is also deleted of the PDR3 transcriptional regulator, but contains the gain-of-function Pdr1-3 transcriptional regulator mutation that leads to constitutive overexpression from the PDR5 locus.
as §2

Experiment [4] concerns the target T1, wild-type (AD3Δ) ScLDM6×His (Saccharomyces cerevisiae, UniProt P10614).
T1 construct: recombinant full-length C-terminal hexahistidine-tagged wild-type Saccharomyces cerevisiae LDM (ScLDM6×His); 6×His (hexahistidine) (C); made in house; host or cells: Saccharomyces cerevisiae strain AD3Δ ScErg11 (overexpression from the PDR5 locus, native ERG11 disrupted)
The experiment can be described thus: Type II azole binding to affinity purified wild-type ScLDM6×His. The settings on record: for ΔAmax: type II binding. As to the method:
Protein purification was carried out using established methods. In brief, a 12 L culture for each control and test strain was grown overnight in 1 L volumes of YPD medium (1% [w/v] yeast extract [BD Difco], 2% [w/v] peptone [BD Difco], and 2% [w/v] D-glucose) in baffled 3 L flasks at 30 °C, with constant agitation (140 rpm). Cells harvested by centrifugation were broken by bead-beating and crude membrane fractions obtained by differential centrifugation, as previously described. The protein concentration of the crude membranes was estimated using the Lowry assay, with bovine serum albumin (Thermo Fisher) used as the protein standard. The crude membranes (1 g at 2.5 mg/mL) were detergent-solubilized using 10× critical micelle concentration (CMC) n-decyl-β-D-maltoside (DM) (Anatrace, Maumee, OH, USA) in buffer containing 10% (w/v) glycerol, 250 mM NaCl, 20 mM Tris pH 7.5, 0.5 mM phenylmethanesulfonyl fluoride (PMSF), and 1 EDTA-free protease inhibitor pill (Roche, Basel, Switzerland) per 300 mL. When the protein was to be used to assess in vitro binding affinity for the test azoles, detergent solubilized ScLDM6×His recovered after centrifugation was affinity purified using a nickel-nitrilotriacetic acid (Ni-NTA)-agarose matrix (Qiagen). The bound ScLDM6×His was eluted from the matrix using an affinity purification buffer containing 50 mM L-histidine. The L-histidine was removed by washing the enzyme through centrifugal filtration, using a 50 kDa molecular-weight cut-off Amicon Ultra-4 filter (Sigma, Auckland, New Zealand).
The concentration of functional ScLDM6×His purified by the nickel affinity method was quantitated using the standard carbon monoxide (CO) binding method. Type II drug binding assays that measure absorbance changes due to ligand interactions with ScLDM6×His were performed for VCZ and ITC, using an established protocol. The peak429nm-trough410nm difference spectra plotted against azole concentration were used to generate drug binding curves. All calculations were performed using GraphPad Prism 5 Software.

[5] abbreviates: wild-type (AD3Δ) ScLDM6×His, 2 µM enzyme, (± SEM), μM, read-out: [Azole]0.5.
The mark [6] stands for this setting: wild-type (AD3Δ) ScLDM6×His, (± SEM).
Setting [7] is: wild-type ScLDM6×His, supplement, 'in the 0.5 μM range'.
Setting [8] is: wild-type enzyme, in the presence of 2 µM enzyme, read-out: IC50 from type II binding curves.

Where two headings read alike, the source gives them in different places.

T1 sequence (P10614 whole entry, stated change not applied): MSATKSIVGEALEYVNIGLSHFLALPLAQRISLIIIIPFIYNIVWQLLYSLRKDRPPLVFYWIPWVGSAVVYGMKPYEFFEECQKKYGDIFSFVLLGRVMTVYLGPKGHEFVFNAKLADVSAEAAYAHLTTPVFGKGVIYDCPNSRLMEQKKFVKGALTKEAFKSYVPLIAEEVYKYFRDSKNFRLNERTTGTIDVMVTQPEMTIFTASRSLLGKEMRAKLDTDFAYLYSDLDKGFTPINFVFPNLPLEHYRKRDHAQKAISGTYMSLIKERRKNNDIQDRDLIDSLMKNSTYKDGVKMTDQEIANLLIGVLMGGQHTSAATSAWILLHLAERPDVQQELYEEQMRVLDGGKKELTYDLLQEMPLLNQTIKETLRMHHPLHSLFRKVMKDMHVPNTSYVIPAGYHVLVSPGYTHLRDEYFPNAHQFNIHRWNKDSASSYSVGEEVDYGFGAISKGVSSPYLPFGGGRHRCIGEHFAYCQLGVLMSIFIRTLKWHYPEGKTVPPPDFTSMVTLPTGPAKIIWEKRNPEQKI

A word on the MIC80: it is the lowest concentration that inhibits either 80% of growth or 80% of the strains tested, depending on the study. The term Kd denotes the equilibrium constant for the complex coming apart. Take `CCC(C)n1ncn(-c2ccc(N3CCN(c4ccc(OCC5COC(Cn6cncn6)(c6ccc(Cl)cc6Cl)O5)cc4)CC3)cc2)c1=O` (centres unmarked) [ITC, itraconazole]: in experiment [1], the MIC80 was found to be 0.143 µM and the “MIC80/Relative Amount of ScLDM6×His” value was determined as 0.143 µM. In experiment [2], the MIC80 is 0.102 µM, the “increased susceptibility compared with AD3Δ” value turned out to be 1.4 fold, the “MIC80/Relative Amount of ScLDM6×His” value was determined as 0.2 µM and the “fold-resistance based on the relative amount of recombinant enzyme compared with strain AD3Δ” value is on record as 1.4 ×. Besides, the MIC80 in experiment [3] was 0.0735 µM. Also, in experiment [4] (setting [5]), the IC50 is 0.6 µM. In experiment [4] (setting [6]), the ΔAmax is reported as 0.08 (0.006), the Hill number was 1.61 (0.22) and the Kd stood at 430 nM. Besides, the Kd in experiment [4] (setting [7]) is around 500 nM. In addition, the IC50 in experiment [4] (setting [8]) lay within 0.6 to 0.8 µM.

For the molecule `C[C@@H](c1ncncc1F)[C@](O)(Cn1cncn1)c1ccc(F)cc1F` [VCZ, voriconazole], in experiment [1], the MIC80 was 0.0933 µM and the “MIC80/Relative Amount of ScLDM6×His” value is 0.0933 µM. In experiment [2], the MIC80 turned out to be 0.074 µM, the “increased susceptibility compared with AD3Δ” value was 1.2 fold, the “MIC80/Relative Amount of ScLDM6×His” value amounted to 0.145 µM and the “fold-resistance based on the relative amount of recombinant enzyme compared with strain AD3Δ” value is reported as 1.6 ×. The MIC80 in experiment [3] is 0.0375 µM. Moreover, the IC50 in experiment [4] (setting [5]) was determined as 0.78 µM. For the same molecule, in experiment [4] (setting [6]), the ΔAmax was 0.10 (0.004), the Hill number was 1.85 (0.23) and the Kd was found to be 620 nM. This molecule came in with a Kd in experiment [4] (setting [7]) of around 500 nM. The IC50 in experiment [4] (setting [8]) is 0.6 to 0.8 µM.
